Broadly, the EC50 is the midpoint of the concentration-response curve. In general, IC50 refers to the concentration that gives 50% inhibition. The low end stands for inhibition by little substance, the high end for a need for much substance.

Where “and” joins values, the source holds several entries; their conditions need not be identical. Equal entries are not always repeated. Calls of active or inactive are those of the source.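 Rule for the calls: active = compounds giving half or more protection of infected cells from virus-caused growth loss, again on retest; inactive = the rest.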

The results in this text go back to PubChem BioAssay AID179 (DTP/NCI, 2004).

In the test the test system is CEM cells HIV-1 protection, formazan growth assay. Briefly: NCI AIDS Antiviral Assay. The following applies: for IC50: measured here: growth of uninfected CEM cells. In short, it runs like this:
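Steps: treat uninfected and HIV-1-infected human CEM cells at five drug levels; quantify growth by soluble formazan; retest any compound reaching 50% protection; classify actives from the retest.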

As to `CN(C)C12C=CC=CC3=C(c4ccccc4)C(c4ccccc4)=C(c4ccccc4)C31c1ccccc1C2` (stereo unspecified), the EC50 was over 200 µM and the IC50 was over 200 µM.
In the case of `O=C1c2ccccc2N(O)C1(c1ccccc1)C1CCCC=C1N1CCOCC1` (stereo unspecified), the result was inactive.
Turning to `CCOC(=O)CCC(NC(=O)C(N)c1ccc([N+](=O)[O-])cc1)C(=O)NC(CCC(=O)OCC)C(=O)OCC` (stereo unspecified), the EC50 is over 200 µM and the IC50 is over 200 µM.
Consider `CCCCN(CCCC)C1CCC(Nc2ccnc3cc(Cl)ccc23)CC1` (stereo unspecified), for which the EC50 is over 200 µM and the IC50 was found to be 25.7 µM.
For `O=C1OC(c2ccccc2)=N/C1=C\c1ccco1`, in that order: over 75.9 µM and 60.3 µM.
In the same order, the values of `Cc1c2ccccc2nc(CS(=O)c2ccccc2)[n+]1[O-]` (stereo unspecified) are over 200 µM and 186 µM.
In the same order, the values of `C[Si](C)(C)OC=C1CCCCC1` are over 200 µM and over 200 µM.
Regarding `C=C(C)C1C/C=C(/C)CCCC2(CCC3=C(CC(C(=C)C)C/C=C(/C)CCC3)O2)C(=O)C1` (stereo unspecified), the EC50 was over 30.9 µM and the IC50 is over 30.9 µM.
Turning to `O=C(Nc1ccccc1)c1cc(S(=O)(=O)NC2=NC(c3ccccc3)c3cc(Cl)ccc3N2)c(SSc2cc(Cl)c(C(=O)Nc3ccccc3)cc2S(=O)(=O)NC2=NC(c3ccccc3)c3cc(Cl)ccc3N2)cc1Cl` (stereo unspecified), the EC50 is over 200 µM and the IC50 was over 200 µM.
Take `CCOC(=O)c1ccc(CS(=O)(=O)c2ccccc2)cc1`: the EC50 was over 23.4 µM and the IC50 was over 23.4 µM.
Take `Cc1cc2cc3c(=O)[nH]c(=O)cc-3n(CC(O)C(O)C(O)CO)c2cc1C` (stereo unspecified): the EC50 was over 200 µM and the IC50 is over 200 µM.
Turning to `O=C1OC2(c3ccccc31)c1ccc(O)c(O)c1Oc1c2ccc(O)c1O`, the EC50 was over 200 µM; the IC50 was 36.3 µM and 33.1 µM and 9.55 µM.
As to `C1=C(c2ccccc2)Nc2ccccc2N=C1c1ccccc1`, the EC50 was over 200 µM and the IC50 was over 200 µM.
As to `CC1=C/C(=C(\c2cc(C)c(O)c(C(=O)O)c2)c2c(Cl)cccc2Cl)C=C(C(=O)O)C1=O`, the result was inactive.
On the same count and under the same terms, under `CC(=O)OCC(=O)[C@@]1(O)CC[C@H]2[C@@H]3C[C@H](C)C4=CC(=O)C=C[C@]4(C)[C@@]3(F)[C@@H](O)C[C@@]21C` stands “inactive”.
Turning to `C/C(=C1/N=C(c2cc([N+](=O)[O-])ccc2Cl)N(C2=CC=C(Cl)CC2)C1=O)c1cc2ccccc2oc1=O`, the EC50 is over 19.1 µM and the IC50 was over 19.1 µM.
Take `C=CCNC(=S)/N=C/c1c(O)[nH]c(=O)[nH]c1=O`: the result was inactive.
For `O=c1ccc(=Nc2ccc(NNc3ccccc3)cc2)c2c(=O)c3c([N+](=O)[O-])ccc(O)c3c(=O)c1=2`, the EC50 is over 100 µM and the IC50 was 17.8 µM.
Turning to `O=[N+]([O-])c1ccccc1S(=O)(=O)c1ccccc1`, the EC50 is 18.2 µM and the IC50 was found to be 170 µM.
`CC12CCCC(C(=O)O)(C1)[C@H](C(C)(C)C(=O)O)CC2` (stereo partly specified): the EC50 was over 200 µM and the IC50 was over 200 µM.
For `CC1=NOC/C1=N\Nc1ccc(C(C)=NC2C3CC4CC(C3)CC2C4)cc1` (stereo unspecified), the EC50 is over 27.5 µM and the IC50 was over 27.5 µM.
With `[Cu+2].[O-]/N=C/c1ccc(O)cc1[O-].[O-]/N=C/c1ccc(O)cc1[O-]`, the EC50 was over 26.9 µM and the IC50 is 13.2 µM.
For `CCOC(=O)c1c(C)nc(C)c(C(=O)OCC)c1-c1ccc(N(C)C)cc1`, in that order: over 200 µM and 53.7 µM.
In the case of `Cc1ccc(S(=O)(=O)N/N=C2\CC3C4C=CC3C2C4)cc1` (stereo unspecified), the EC50 is over 200 µM and the IC50 was over 200 µM.
In the case of `CCc1ccccc1NC(=O)C(=O)C(C(=O)c1ccc(OC)cc1)c1ccc(OC)cc1` (stereo unspecified), the outcome was inactive.
Take `COc1ccc(I)c(CCC(CO)C2=CCC3(CC2)OCCO3)c1` (stereo unspecified): the EC50 is over 16.2 µM and the IC50 is over 16.2 µM.
In the case of `Cn1c(=O)c2nc(N3CCCCC3)cnc2n(C)c1=O`, the EC50 was over 200 µM and the IC50 is over 200 µM.
For the molecule `C=CCNC(=S)N/C=C(\C#N)C(N)=O`, the EC50 was over 200 µM and the IC50 was over 200 µM.
For the molecule `CC(=O)OCC1OC(n2cnc([N+](=O)[O-])c2Br)C(OC(C)=O)C1OC(C)=O` (stereo unspecified), the EC50 was over 200 µM and the IC50 was 11.7 µM.
Turning to `CC(=O)/C=C/c1cc([N+](=O)[O-])ccc1O`, the EC50 was over 200 µM and the IC50 was 36.3 µM.
For `CC1(C)C(=NNC(=O)C[N+](C)(C)C)C(C)(C)C1=NNC(=O)C[N+](C)(C)C`, in that order: over 28.8 µM and over 28.8 µM.
Take `COC1/C=C/OC2(C)Oc3c(C)c(O)c4c(O)c(c(/C=N\N(C)C56CC7CC(CC(C7)C5)C6)c(O)c4c3C2=O)NC(=O)C(C)=C/C=C/C(C)C(O)C(C)C(O)C(C)C(OC(C)=O)C1C` (stereo unspecified): the EC50 is over 200 µM and the IC50 was 7.41 µM.
`CCOC(=O)c1c(NS(=O)(=O)c2ccc(Br)cc2)sc2c1CCCC2`: the result was inactive.
With `C(#CC[P+](c1ccccc1)(c1ccccc1)c1ccccc1)C[P+](c1ccccc1)(c1ccccc1)c1ccccc1`, the EC50 is over 200 µM and the IC50 came out at 36.3 µM.
In the same order, the values of `CC(C)(C)[Si](C)(C)OC1CCOC1(O)c1ccccn1` (stereo unspecified) are over 200 µM and 66.1 µM.
Turning to `COc1cc(/C=C(\C#N)C(=O)c2ccccc2)ccc1OCc1ccccc1`, the EC50 is over 19.5 µM and the IC50 is over 19.5 µM.
Regarding `NS(=O)(=O)c1ccc(Nc2c3ccccc3nc3c(C(=O)NC(CO)(CO)CO)cccc23)cc1`, the EC50 is over 200 µM and the IC50 was found to be 3.39 µM.
For `COC(=O)C1c2c(c3ccccc3n2C(=O)OC)CCN2CCC1C(S(=O)(=O)c1ccccc1)C2=O` (stereo unspecified), the EC50 is 363 µM and the half-maximal inhibitory concentration (IC50) turned out to be 447 µM.
With `Cn1c2ccccc2c2ccc3c(c21)C(=O)c1ccc2c4ccccc4n(C)c2c1C3=O`, the EC50 is over 200 µM and the IC50 is over 200 µM.
Turning to `Cc1cc(C)[s+]s1`, the EC50 was over 200 µM; the IC50 is 112 µM and 182 µM.
As for `Cn1cnc([N+](=O)[O-])c1Sc1nc2ccc([N+](=O)[O-])cc2[nH]1`, the EC50 was over 81.3 µM and the IC50 came to 7.76 µM.
In the same order, the values of `COC1(C)C(=O)NC(=O)N(C2C=CC(CO)O2)C1O` (stereo unspecified) are 7.41 µM and 170 µM.
For `O=C(Cn1c(C(=O)c2ccccc2)nc2ccccc21)c1ccccc1`, in that order: over 200 µM and 7.41 µM.
Turning to `O=S(=O)(O)c1cc(Cl)cc(Cc2cc(Cl)cc(S(=O)(=O)O)c2O)c1O`, the result was active.
Regarding `COc1ccc(-c2c(C#N)c(N)nc3c2CCS(=O)(=O)c2ccccc2-3)cc1`, the EC50 was over 200 µM and the IC50 was over 200 µM.
For the molecule `N#Cc1c2c(c(Cl)n3c1nc1ccccc13)CCCC2`, the EC50 was over 3.72 µM and the IC50 is over 3.72 µM.
For the molecule `CCOC(=O)C(NC(=O)c1ccccc1)(N1CCN(c2cc3c(cc2F)c(=O)c(C(=O)O)cn3CC)CC1)C(F)(F)F` (stereo unspecified), the EC50 was over 200 µM and the IC50 turned out to be 34.7 µM.
Consider `CC1(C)OCC2OC3OC(C)(C)OC3C(OS(C)(=O)=O)C2O1` (stereo unspecified), for which the EC50 was over 200 µM and the IC50 is over 200 µM.
With `CCCCc1ccc2[n+](c1)C(C(=O)OCC)=PC2` (stereo unspecified), the EC50 is over 178 µM and the IC50 amounted to 145 µM.
As for `CC1(COc2ccccc2OCC2(C)CO2)CO1` (stereo unspecified), the EC50 is over 1000 µM and the IC50 is 16.6 µM.
In the same order, the values of `O=C(/C=C/c1ccc2c(c1)OCO2)NCc1ccco1` are over 200 µM and 117 µM.
In the same order, the values of `COc1cccc(NC(=O)/C(CS(=O)(=O)CCC(C(C)=O)C(C)=O)=N\NC(C)(C)C)c1` are 25.7 µM and 550 µM.
In the same order, the values of `Nc1nc(Cl)c(C=O)c(NCC2(CO)CCC2)n1` are over 200 µM and 2.88 µM.
For `CC(=O)CC1(OC(=O)C2C(C=C(C)C)C2(C)C)C(=O)Nc2ccccc21` (stereo unspecified), the EC50 is over 200 µM and the IC50 is 105 µM.
In the same order, the values of `Nc1c(C(=O)Nc2ccc(C3=NCCN3)cc2)cccc1C(=O)Nc1ccc(C2=NCCN2)cc1` are over 110 µM and 67.6 µM.
For `COC(O)C12OC3CO[Si](C(C)C)(C(C)C)O[Si](C(C)C)(C(C)C)OC3C1Oc1nc(=O)ccn12` (stereo unspecified), in that order: over 200 µM and 30.2 µM.
For `Cc1cc(Cl)ccc1C(=O)c1ccc2ccccc2c1C(=O)O`, in that order: over 550 µM and 126 µM.
As to `CCCCCCCCCC=C(c1cc(Br)c(O)c(C(=O)O)c1)c1cc(Br)c(O)c(C(=O)O)c1`, the EC50 is 141 µM and the IC50 was determined as 191 µM.
Turning to `CC(=O)Oc1c2c(c(OC(C)=O)c3c1C(=O)c1ccccc1C3=O)CCC([C@H](C)O)=C2`, the result was inactive.
For `N#CCC(=O)N1CCCOCCC1`, the EC50 was over 1380 µM and the IC50 is over 1380 µM.
Regarding `Clc1cccc(-n2cccc2)c1`, the EC50 was over 200 µM and the IC50 is over 200 µM.
Turning to `O=C1C=C(N2CCOCC2)c2cnccc2C1=O`, the result was inactive.
As for `O=C(c1ccccc1)C(c1ccccc1)C1(O)C(=O)Nc2c(Cl)ccc(Cl)c21` (stereo unspecified), the EC50 is over 17.4 µM and the IC50 is over 17.4 µM.
On to `CC1(n2[nH]c(=O)n(-c3ccccc3)c2=O)Cn2c(=O)n(-c3ccccc3)c(=O)n2-c2ccccc21` (stereo unspecified), for which the EC50 is over 200 µM and the IC50 is over 200 µM.
Take `C#CCN1C(=O)c2ccccc2S1(=O)=O`: the EC50 is over 200 µM and the IC50 was over 200 µM.
For the molecule `O=C(NCCc1c[nH]c2ccccc12)C1CC1`, the EC50 is over 200 µM and the IC50 worked out at 110 µM.
In the same order, the values of `O=C(O)CCC(=O)NNC(=O)CCC(=O)O` are over 155 µM and over 155 µM.
For `CCOC(=O)/C(=C\c1ccc(O)c(OC)c1)C(=O)c1ccccc1`, the EC50 is over 288 µM and the IC50 worked out at 41.7 µM.
In the same order, the values of `CC(C)(C)c1ccc(SSc2ccc(C(C)(C)C)cc2)cc1` are over 200 µM and 12.3 µM.
In the same order, the values of `Cn1c(=O)c2c(nc3sc4c(n32)C(=O)c2c(O)ccc(O)c2C4=O)n(C)c1=O` are 0.2 µM and 0.257 µM.
